Experimental data as given in patent US4613355A, “Antibiotic having herbicidal activity” (Satoshi Omura, priority 1983, dated 1986).
In brackets after ≈: the same amount, converted by molar mass.

Key:
Killifishes (Medaka) = experiment: Acute toxicity to fish, survival ratio (Example 13); format: in vivo; details: for Survival ratio (%): killifish, 100 ppm
Description: Killifishes (Japanese name, Medaka), were obtained from a market and maintained in a water bath at 25±2° C. for a week. Then the fishes (each group consisting of 10 fishes) were placed in water baths containing the test compounds at given concentrations as shown in the following Table. 24 and 48 hours after this, the survival ratio (%) of each group was visually counted to assess the acute toxity.

Rumex obtusifolius = experiment: Foliage treatment with different salts (Example 11); format: in vivo; design: key: 0 indicates no effect; 5 indicates complete kill; details: Rumex obtusifolius (Plant No. 14), 1000 liter per hectare
Description: Aqueous solutions containing different salts of Phosalacine at different concentrations as active ingredients and 0.1% of octylphenylpolyoxy ethanol as surfactant were applied at a rate of 1000 liter per hectare to Rumex obtusifolius (Plant No. 14) at a certain stage of growth. 21 days after foliage treatment, damage to the plant was visually assessed on a scale of 0 to 5 as hereinbefore described. The salts used were prepared by the methods described in the reference mentioned above.

Digitaria adscendens = experiment: Foliage treatment of seedlings in pots (Example 7); format: in vivo; details: 10 days after foliage treatment, 1000 liter per hectare
Description: Upland soil was put in a pot of 10 cm diameter and the seeds of Digitaria adscendens were sown in the soil at a depth of 1 cm from the surface. When the height of the seedlings was about 10 cm, aqueous solutions of the test compounds as shown in the following Table were uniformly sprayed on the plants at a rate of 1.2 ml per plant, equivalent to 1000 liter per hectare. 10 days after the foliage treatment, damage to plants was visually assessed on a scale of from 0 to 10, where 0 indicates no effect and 10 indicates complete kill.

[1] = test system: Staphylococcus aureus KB210; experiment: MIC by agar dilution method; format: cell-based; details: medium A Davis's minimal medium (pH 7.0)
[2] = test system: Staphylococcus aureus KB199; experiment: MIC by agar dilution method; format: cell-based; details: medium A Davis's minimal medium (pH 7.0)
Bacillus subtilis KB211 = experiment: MIC by agar dilution method; format: cell-based
Bacillus cereus KB143 = experiment: MIC by agar dilution method; format: cell-based; details: medium A Davis's minimal medium (pH 7.0)
Micrococcus luteus KB212 = experiment: MIC by agar dilution method; format: cell-based; details: medium A Davis's minimal medium (pH 7.0)
Escherichia coli KB213 = experiment: MIC by agar dilution method; format: cell-based; details: medium A Davis's minimal medium (pH 7.0)
Description: The minimum inhibitory concentrations (MIC values) of Phosalacine were investigated in conventional manner by the agar dilution method and the results are indicated in the following Table, from which it is apparent that Phosalacine is active against various Gram-positive and Gram-negative bacteria and fungi.
[Notes: A . . . Davis's minimal medium (pH 7.0), B . . . Dextrose Czapek'

Escherichia coli KB176 = experiment: MIC by agar dilution method; format: cell-based; details: medium A Davis's minimal medium (pH 7.0)
[3] = test system: Klebsiella pneumoniae KB214; experiment: MIC by agar dilution method; format: cell-based; details: medium A Davis's minimal medium (pH 7.0)
Erwinia aroideae KB148 = experiment: MIC by agar dilution method; format: cell-based; details: medium A Davis's minimal medium (pH 7.0)
Proteus vulgaris KB127 = experiment: MIC by agar dilution method; format: cell-based; details: medium A Davis's minimal medium (pH 7.0)
Candida albicans KFl = experiment: MIC by agar dilution method; format: cell-based; details: medium B Dextrose Czapek' medium
Aspergillus niger KF105 = experiment: MIC by agar dilution method; format: cell-based; details: medium B Dextrose Czapek' medium
Mucor racemosus KF223 = experiment: MIC by agar dilution method; format: cell-based; details: medium B Dextrose Czapek' medium
Piricularia oryzae KF180 = format: cell-based; details: medium B Dextrose Czapek' medium
various plants = experiment: Inhibition of regrowth one month after foliage treatment (Example 8); format: in vivo; details: visually assessed, compared with SF-1293
Description: Aqueous solutions of Phosalacine (Na salt) at different concentrations were applied at a rate of 1500 liters per hectare to naturally occurring plants or plants which were cultured on plates as shown in the following Table at certain stages of growth. The Phosalacine applied contained 0.1% of octylphenylpolyoxy ethanol as surfactant. 7 and 14 days after the foliage treatment, damage to the plants was visually assessed on a scale of from 0 to 5 where 0 indicates no effect and 5 indicates complete kill. […] One month after the foliage treatment, the inhibition of regrowth of the plants was visually investigated.
One month after the foliage treatment, the inhibition of regrowth of the plants was visually assessed.

Chamaecyparis obtusa = experiment: Foliage treatment of woody plants (Example 10); format: in vivo; details: even when applied at a concentration of 0.5%
Description: (§1) Aqueous solutions containing Phosalacine (Na salt) at different concentrations and 0.1% of octylphenylpolyoxy ethanol as surfactant were applied at a rate of 1500 liter per hectare to woody plants of about 60-70 cm in height. 7 and 14 days after the foliage treatment, damage to the plants was visually assessed on a scale of from 0 to 5 (cf. Example 7).

Cryptomeria japonica = experiment: Foliage treatment of woody plants (Example 10); format: in vivo; details: in vivo
Description: as §1

[4] = Acute toxicity in mice per os, body weight (Example 14); format: in vivo, Mice ICR (RJ) strain; details: for Body weight: 500 mg/kg per os
Description: Mice [ICR (RJ) strain; female; 6 weeks after birth; each group consisting of 10 mice] were used as test animals to investigate the acute toxity of Phosalacine in mice. A 1% aqueous solution (free acid) was forcibly administered per os to each animal and the body weight of each animal was measured 7 and 14 days after administration. Separately, a similar test was effected by administering Phosalacine (free acid) at a dose of 100 mg/kg.

[5] = Physico-chemical characteristics: acid/base nature; format: physicochemical

CPCC[C@H](N)C(=O)O (stereo partly drawn) [L-2-amino-4-methylphosphino butyric acid, reference compound]
Survival ratio (%) (Killifishes (Medaka); 24 hours): 0% | Survival ratio (%) (Killifishes (Medaka); 48 hours): 0%

CC(C)CC(NC(=O)C(C)NC(=O)C(N)CCP(C)(=O)O)C(=O)O.CCCCN (centres unmarked) [Mono n-butylamine salt]
Damage to plants after 21 days, scale 0 to 5 (Rumex obtusifolius; 0.05%): 3 | Damage to plants after 21 days, scale 0 to 5 (Rumex obtusifolius; 0.1%): 5

CC(C)CC(NC(=O)C(C)NC(=O)C(N)CCP(C)(=O)[O-])C(=O)[O-].[K+].[K+] (centres unmarked) [Di Ka salt]
Damage to plants after 21 days, scale 0 to 5 (Rumex obtusifolius; 0.05%): 3 | Damage to plants after 21 days, scale 0 to 5 (Rumex obtusifolius; 0.1%): 5

CC(C)CC(NC(=O)C(C)NC(=O)C(N)CCP(C)(=O)O)C(=O)O.CC(C)N (centres unmarked) [Mono isopropylamine salt]
Damage to plants after 21 days, scale 0 to 5 (Rumex obtusifolius; 0.05%): 3 | Damage to plants after 21 days, scale 0 to 5 (Rumex obtusifolius; 0.1%): 5

CC(C)C[C@H](NC(=O)[C@H](C)NC(=O)[C@@H](N)CCP(C)(=O)O)C(=O)O.CCNCC [monodiethylamine salt]
damage to plants, scale 0 to 10 (Digitaria adscendens; Concentration 0.01 ppm): 5 (50) | damage to plants, scale 0 to 10 (Digitaria adscendens; Concentration 0.03 ppm): 10 (100) | damage to plants, scale 0 to 10 (Digitaria adscendens; Concentration 0.1 ppm): 10 (100)

CC(C)CC(NC(=O)C(C)NC(=O)C(N)CCP(C)(=O)[O-])C(=O)[O-].[Na+].[Na+] (centres unmarked) [Di Na salt]
Damage to plants after 21 days, scale 0 to 5 (Rumex obtusifolius; 0.05%): 3 | Damage to plants after 21 days, scale 0 to 5 (Rumex obtusifolius; 0.1%): 5

CC(C)C[C@H](NC(=O)[C@H](C)NC(=O)[C@@H](N)CCP(C)(=O)O)C(=O)O [Phosalacine, phosphinothricyl-alanyl leucine]
MIC [1]: 0.4 µg/mL (≈ 1.09 µM) | MIC [2]: 0.2 µg/mL (≈ 0.547 µM) | MIC (Bacillus subtilis KB211; Bacillus subtilis KB211, medium A Davis's minimal medium (pH 7.0)): 0.4 µg/mL (≈ 1.09 µM) | Effect of glutamine on activity against Bacillus subtilis (Bacillus subtilis KB211; synthetic media): competitively antagonised by glutamine | MIC (Bacillus cereus KB143): 0.4 µg/mL (≈ 1.09 µM) | MIC (Micrococcus luteus KB212): 6.25 µg/mL (≈ 17.1 µM) | MIC (Escherichia coli KB213): 12.5 µg/mL (≈ 34.2 µM) | MIC (Escherichia coli KB176): 25 µg/mL (≈ 68.4 µM) | MIC [3]: 25 µg/mL (≈ 68.4 µM) | MIC (Erwinia aroideae KB148): < 0.05 µg/mL | MIC (Proteus vulgaris KB127): 25 µg/mL (≈ 68.4 µM) | MIC (Candida albicans KFl): > 100 µg/mL | MIC (Aspergillus niger KF105): > 100 µg/mL | MIC (Mucor racemosus KF223): 6.25 µg/mL (≈ 17.1 µM) | MIC (Piricularia oryzae KF180): 0.1 µg/mL (≈ 0.274 µM) | inhibition of regrowth of the plants (various plants): equal or superior to that of SF-1293 | herbicidal activity against Chamaecyparis obtusa (Chamaecyparis obtusa): not herbicidally active | herbicidal activity against Cryptomeria japonica (Cryptomeria japonica): relatively low herbicidal activity | acute toxity against fish, comparison (Killifishes (Medaka); fish): less than that of glyphosate and SF-1293 | Body weight ([4]; After 0 days): 23.9 g | Body weight ([4]; After 7 days): 24.5 g | Body weight ([4]; After 14 days): 26.2 g | change of body weight ([4]; dose of 100 mg/kg): No significant change of body weight | acute toxity to mice ([4]; per os): very low | Acid/base nature [5]: Amphoteric
